Data taken from ChEMBL document CHEMBL4028853, “Microbiota-Host Transgenomic Metabolism, Bioactive Molecules from the Inside” (J Med Chem, 2018).
pEC50: −log10 of the molar value.

Tests used:
[1] = target: T1, Free fatty acid receptor 3 (Homo sapiens, UniProt O14843); assay: Agonist activity at human GPCR41 transfected in HEK293 cells assessed as [35S]GTPgammaS binding by scintillation counting method; assay type: functional, cell-based
T1 sequence (O14843 whole entry): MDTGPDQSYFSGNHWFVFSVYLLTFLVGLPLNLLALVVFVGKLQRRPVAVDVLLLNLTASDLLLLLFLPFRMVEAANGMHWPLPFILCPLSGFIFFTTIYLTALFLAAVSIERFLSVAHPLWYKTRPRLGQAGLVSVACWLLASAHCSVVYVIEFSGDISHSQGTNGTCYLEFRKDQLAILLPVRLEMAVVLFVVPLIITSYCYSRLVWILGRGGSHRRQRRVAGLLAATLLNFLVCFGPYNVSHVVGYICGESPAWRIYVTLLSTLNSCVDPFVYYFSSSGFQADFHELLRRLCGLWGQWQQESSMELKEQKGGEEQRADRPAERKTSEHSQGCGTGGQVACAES

[2] = target: T2, Free fatty acid receptor 2 (Homo sapiens, UniProt O15552); assay: Agonist activity at human GPCR43 transfected in HEK293 cells assessed as [35S]GTPgammaS binding by scintillation counting method
T2 sequence (O15552 whole entry): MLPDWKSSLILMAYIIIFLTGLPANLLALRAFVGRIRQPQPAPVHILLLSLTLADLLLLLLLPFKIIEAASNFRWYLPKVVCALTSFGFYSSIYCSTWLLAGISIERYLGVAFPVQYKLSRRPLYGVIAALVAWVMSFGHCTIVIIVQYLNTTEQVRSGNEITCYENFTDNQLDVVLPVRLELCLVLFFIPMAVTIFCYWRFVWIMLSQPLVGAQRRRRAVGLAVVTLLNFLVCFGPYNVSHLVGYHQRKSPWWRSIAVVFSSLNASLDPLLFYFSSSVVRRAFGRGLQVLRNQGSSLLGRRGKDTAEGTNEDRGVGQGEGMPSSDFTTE

| SMILES | pEC50 [1] | pEC50 [2] |
| --- | --- | --- |
| CC(=O)O [ACETIC ACID] | 3.56 to 4.92 | 3.30 to 3.60 |
| CCCC(=O)O [BUTYRIC ACID] | 3.56 to 4.92 | – |
| CCC(=O)O [PROPIONIC ACID] | 3.56 to 4.92 | – |
